Data as given in the supplement of paper PMC10627819.

Tests used:
B. subtilis 168 [1] = assay: fitness (endpoint OD595 vs no drug) (fraction); higher = more growth
How it was run: (§1)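 Bacterial fitness was scored as optical density at the stationary-phase transition relative to the robust mean of no-drug control wells. Scores are capped at 1. The growth data were OD595 readings every 30 min for 14 h at 37 °C, background-subtracted against the first reading, from 384-well plates inoculated at OD595 0.01 in TSB, LB Lennox or CY.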

S. pneumoniae D39V [2] = assay: as above
How it was run: as §1

B. subtilis 168 [3] = assay: Bliss interaction score (quartile over a dose matrix) (fitness difference); higher = more antagonism (negative = synergy)
How it was run: (§2)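 The Bliss score is observed fitness minus expected fitness, where the expected value is the product of single-drug fitness values inferred from combination data. Fitness is OD595 at entry into stationary phase normalised to the plate's robust no-drug mean and capped at 1. Scores are reported as quartiles spanning technical, biological and donor/recipient replicates.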

S. aureus DSM 20231 = assay: as above
How it was run: as §2

S. aureus Newman = assay: as above
How it was run: as §2

S. pneumoniae D39V [4] = assay: as above
How it was run: as §2
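Wherever Bliss interaction score (quartile over a dose matrix) is given: first quartile when negative (synergy) and third quartile when positive (antagonism).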
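Wherever fitness (endpoint OD595 vs no drug) is given: OD595 on entry to stationary phase over no-drug wells; at most 1.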

C[C@H]1c2cccc(O)c2C(=O)C2=C(O)[C@]3(O)C(=O)C(C(N)=O)=C(O)[C@@H](N(C)C)[C@@H]3[C@@H](O)[C@@H]21 [Doxycycline] + CN(C)c1cc(NC(=O)CNC(C)(C)C)c(O)c2c1C[C@H]1C[C@H]3[C@H](N(C)C)C(O)=C(C(N)=O)C(=O)[C@@]3(O)C(O)=C1C2=O [Tigecycline]
fitness (B. subtilis 168 [1]; first compound 0.02 µg/mL, partner 0.039 µg/mL): 0.94 | fitness (B. subtilis 168 [1]; first compound 0.02 µg/mL, partner 0.078 µg/mL): 0.818 | fitness (B. subtilis 168 [1]; first compound 0.02 µg/mL, partner 0.125 µg/mL, one replicate): 0.99 | fitness (B. subtilis 168 [1]; first compound 0.02 µg/mL, partner 0.156 µg/mL): 0.85 | fitness (B. subtilis 168 [1]; first compound 0.02 µg/mL, partner 0.25 µg/mL, one replicate): 0.873 | fitness (B. subtilis 168 [1]; first compound 0.02 µg/mL, partner 0.5 µg/mL, one replicate): 0.962 | fitness (B. subtilis 168 [1]; first compound 0.04 µg/mL, partner 0.039 µg/mL): 0.824 | fitness (B. subtilis 168 [1]; first compound 0.04 µg/mL, partner 0.078 µg/mL): 0.773 | fitness (B. subtilis 168 [1]; first compound 0.04 µg/mL, partner 0.125 µg/mL, one replicate): 0.994 | fitness (B. subtilis 168 [1]; first compound 0.04 µg/mL, partner 0.156 µg/mL): 0.792 | fitness (B. subtilis 168 [1]; first compound 0.04 µg/mL, partner 0.25 µg/mL, one replicate): 0.849 | fitness (B. subtilis 168 [1]; first compound 0.04 µg/mL, partner 0.5 µg/mL, one replicate): 0.895 | fitness (B. subtilis 168 [1]; first compound 0.08 µg/mL, partner 0.078 µg/mL): 0.619 | fitness (B. subtilis 168 [1]; first compound 0.08 µg/mL, partner 0.125 µg/mL, one replicate): 0.761 | fitness (B. subtilis 168 [1]; first compound 0.08 µg/mL, partner 0.156 µg/mL): 0.635 | fitness (B. subtilis 168 [1]; first compound 0.08 µg/mL, partner 0.25 µg/mL, one replicate): 0.611 | fitness (B. subtilis 168 [1]; first compound 0.08 µg/mL, partner 0.5 µg/mL, one replicate): 0.697 | fitness (S. pneumoniae D39V [2]; first compound 0.003875 µg/mL, partner 0.65 µg/mL, one replicate): ≥ 1 | fitness (S. pneumoniae D39V [2]; first compound 0.003875 µg/mL, partner 1.3 µg/mL, one replicate): ≥ 1 | fitness (S. pneumoniae D39V [2]; first compound 0.003875 µg/mL, partner 2.6 µg/mL, one replicate): ≥ 1 | fitness (S. pneumoniae D39V [2]; first compound 0.00775 µg/mL, partner 0.65 µg/mL, one replicate): 1 | fitness (S. pneumoniae D39V [2]; first compound 0.00775 µg/mL, partner 1.3 µg/mL, one replicate): 0.963 | fitness (S. pneumoniae D39V [2]; first compound 0.00775 µg/mL, partner 2.6 µg/mL, one replicate): 0.954 | fitness (S. pneumoniae D39V [2]; first compound 0.0155 µg/mL, partner 0.65 µg/mL): 0.969 | fitness (S. pneumoniae D39V [2]; first compound 0.0155 µg/mL, partner 1.3 µg/mL): 0.922 | fitness (S. pneumoniae D39V [2]; first compound 0.0155 µg/mL, partner 2.6 µg/mL): 0.903 | fitness (S. pneumoniae D39V [2]; first compound 0.031 µg/mL, partner 0.65 µg/mL): 0.902 | fitness (S. pneumoniae D39V [2]; first compound 0.031 µg/mL, partner 1.3 µg/mL): 0.831 | fitness (S. pneumoniae D39V [2]; first compound 0.031 µg/mL, partner 2.6 µg/mL): 0.796 | fitness (S. pneumoniae D39V [2]; first compound 0.062 µg/mL, partner 0.65 µg/mL): 0.885 | fitness (S. pneumoniae D39V [2]; first compound 0.062 µg/mL, partner 1.3 µg/mL): 0.773 | fitness (S. pneumoniae D39V [2]; first compound 0.062 µg/mL, partner 2.6 µg/mL): 0.732 | Bliss interaction score (B. subtilis 168 [3]): 0.0765 | Bliss interaction score (S. aureus DSM 20231): -0.104 | Bliss interaction score (S. aureus Newman): -0.0649 | Bliss interaction score (S. pneumoniae D39V [4]): 0.0303

O=C(O)c1cn(C2CC2)c2cc(N3CCNCC3)c(F)cc2c1=O [Ciprofloxacin] + CCC(C)C1C(=O)NC(=C)C(=O)NC(C(=O)NC(CSCC(C(=O)N1)NC(=O)/C(=C/C)/NC(=O)C(C(C)CC)N)C(=O)NC2C(SCC(NC(=O)CNC(=O)C3CCCN3C2=O)C(=O)NC(CCCCN)C(=O)NC4C(SCC(NC(=O)CNC(=O)C(NC(=O)C(NC(=O)C(NC(=O)CNC4=O)C)CC(C)C)CCSC)C(=O)NC(CC(=O)N)C(=O)NC(CCSC)C(=O)NC(CCCCN)C(=O)NC5C(SCC6C(=O)NC(C(=O)NC(CSC(C(C(=O)N6)NC(=O)C(NC5=O)C)C)C(=O)NC(CO)C(=O)NC(C(C)CC)C(=O)NC(CC7=CN=CN7)C(=O)NC(C(C)C)C(=O)NC(=C)C(=O)NC(CCCCN)C(=O)O)CC8=CN=CN8)C)C)C)CC(C)C [Nisin]
fitness (B. subtilis 168 [1]; first compound 0.0098 µg/mL, partner 0.5 µg/mL, main component drawn): 0.838 | fitness (B. subtilis 168 [1]; first compound 0.0098 µg/mL, partner 1 µg/mL, main component drawn): 0.814 | fitness (B. subtilis 168 [1]; first compound 0.0098 µg/mL, partner 1.25 µg/mL, one replicate, main component drawn): 0.919 | fitness (B. subtilis 168 [1]; first compound 0.0098 µg/mL, partner 1.6 µg/mL, one replicate, main component drawn): 0.726 | fitness (B. subtilis 168 [1]; first compound 0.0098 µg/mL, partner 2 µg/mL, main component drawn): 0.568 | fitness (B. subtilis 168 [1]; first compound 0.0098 µg/mL, partner 2.5 µg/mL, one replicate, main component drawn): 0.577 | fitness (B. subtilis 168 [1]; first compound 0.0098 µg/mL, partner 3.2 µg/mL, one replicate, main component drawn): 0.0245 | fitness (B. subtilis 168 [1]; first compound 0.0098 µg/mL, partner 4 µg/mL, one replicate, main component drawn): 0.368 | fitness (B. subtilis 168 [1]; first compound 0.0098 µg/mL, partner 5 µg/mL, one replicate, main component drawn): 0.0657 | fitness (B. subtilis 168 [1]; first compound 0.0098 µg/mL, partner 6.4 µg/mL, one replicate, main component drawn): 0.0606 | fitness (B. subtilis 168 [1]; first compound 0.0098 µg/mL, partner 8 µg/mL, one replicate, main component drawn): 0.0414 | fitness (B. subtilis 168 [1]; first compound 0.0098 µg/mL, partner 16 µg/mL, one replicate, main component drawn): 0.0186 | fitness (B. subtilis 168 [1]; first compound 0.0195 µg/mL, partner 0.5 µg/mL, main component drawn): 0.702 | fitness (B. subtilis 168 [1]; first compound 0.0195 µg/mL, partner 1 µg/mL, main component drawn): 0.591 | fitness (B. subtilis 168 [1]; first compound 0.0195 µg/mL, partner 1.25 µg/mL, one replicate, main component drawn): 0.795 | fitness (B. subtilis 168 [1]; first compound 0.0195 µg/mL, partner 1.6 µg/mL, one replicate, main component drawn): 0.575 | fitness (B. subtilis 168 [1]; first compound 0.0195 µg/mL, partner 2 µg/mL, main component drawn): 0.427 | fitness (B. subtilis 168 [1]; first compound 0.0195 µg/mL, partner 2.5 µg/mL, one replicate, main component drawn): 0.381 | fitness (B. subtilis 168 [1]; first compound 0.0195 µg/mL, partner 3.2 µg/mL, one replicate, main component drawn): 0.0411 | fitness (B. subtilis 168 [1]; first compound 0.0195 µg/mL, partner 4 µg/mL, one replicate, main component drawn): 0.223 | fitness (B. subtilis 168 [1]; first compound 0.0195 µg/mL, partner 5 µg/mL, one replicate, main component drawn): 0.035 | fitness (B. subtilis 168 [1]; first compound 0.0195 µg/mL, partner 6.4 µg/mL, one replicate, main component drawn): 0.0488 | fitness (B. subtilis 168 [1]; first compound 0.0195 µg/mL, partner 8 µg/mL, one replicate, main component drawn): 0.0139 | fitness (B. subtilis 168 [1]; first compound 0.0195 µg/mL, partner 16 µg/mL, one replicate, main component drawn): 0.0115 | fitness (B. subtilis 168 [1]; first compound 0.039 µg/mL, partner 0.5 µg/mL, main component drawn): 0.276 | fitness (B. subtilis 168 [1]; first compound 0.039 µg/mL, partner 1 µg/mL, main component drawn): 0.129 | fitness (B. subtilis 168 [1]; first compound 0.039 µg/mL, partner 1.25 µg/mL, one replicate, main component drawn): 0.256 | fitness (B. subtilis 168 [1]; first compound 0.039 µg/mL, partner 1.6 µg/mL, one replicate, main component drawn): 0.0309 | fitness (B. subtilis 168 [1]; first compound 0.039 µg/mL, partner 2 µg/mL, main component drawn): 0.031 | fitness (B. subtilis 168 [1]; first compound 0.039 µg/mL, partner 2.5 µg/mL, one replicate, main component drawn): 0.0565 | fitness (B. subtilis 168 [1]; first compound 0.039 µg/mL, partner 3.2 µg/mL, one replicate, main component drawn): 0.0347 | fitness (B. subtilis 168 [1]; first compound 0.039 µg/mL, partner 4 µg/mL, one replicate, main component drawn): 0.0357 | fitness (B. subtilis 168 [1]; first compound 0.039 µg/mL, partner 5 µg/mL, one replicate, main component drawn): 0.061 | fitness (B. subtilis 168 [1]; first compound 0.039 µg/mL, partner 6.4 µg/mL, one replicate, main component drawn): 0.0335 | fitness (B. subtilis 168 [1]; first compound 0.039 µg/mL, partner 8 µg/mL, one replicate, main component drawn): 0.0446 | fitness (B. subtilis 168 [1]; first compound 0.039 µg/mL, partner 16 µg/mL, one replicate, main component drawn): 0.0305 | fitness (S. pneumoniae D39V [2]; first compound 0.125 µg/mL, partner 0.4275 µg/mL, main component drawn): 0.954 | fitness (S. pneumoniae D39V [2]; first compound 0.125 µg/mL, partner 0.855 µg/mL, main component drawn): 0.825 | fitness (S. pneumoniae D39V [2]; first compound 0.125 µg/mL, partner 1.6 µg/mL, main component drawn): 0.0088 | fitness (S. pneumoniae D39V [2]; first compound 0.125 µg/mL, partner 1.71 µg/mL, main component drawn): 0.0552 | fitness (S. pneumoniae D39V [2]; first compound 0.125 µg/mL, partner 3.2 µg/mL, main component drawn): 0.0108 | fitness (S. pneumoniae D39V [2]; first compound 0.125 µg/mL, partner 6.4 µg/mL, main component drawn): 0.005 | fitness (S. pneumoniae D39V [2]; first compound 0.25 µg/mL, partner 0.4275 µg/mL, main component drawn): 0.883 | fitness (S. pneumoniae D39V [2]; first compound 0.25 µg/mL, partner 0.855 µg/mL, main component drawn): 0.398 | fitness (S. pneumoniae D39V [2]; first compound 0.25 µg/mL, partner 1.6 µg/mL, one replicate, main component drawn): 0 | fitness (S. pneumoniae D39V [2]; first compound 0.25 µg/mL, partner 1.71 µg/mL, main component drawn): 0.0414 | fitness (S. pneumoniae D39V [2]; first compound 0.25 µg/mL, partner 3.2 µg/mL, one replicate, main component drawn): 0 | fitness (S. pneumoniae D39V [2]; first compound 0.25 µg/mL, partner 6.4 µg/mL, one replicate, main component drawn): 0 | fitness (S. pneumoniae D39V [2]; first compound 0.5 µg/mL, partner 0.4275 µg/mL, main component drawn): 0.614 | fitness (S. pneumoniae D39V [2]; first compound 0.5 µg/mL, partner 0.855 µg/mL, main component drawn): 0.173 | fitness (S. pneumoniae D39V [2]; first compound 0.5 µg/mL, partner 1.6 µg/mL, main component drawn): 0.0116 | fitness (S. pneumoniae D39V [2]; first compound 0.5 µg/mL, partner 1.71 µg/mL, main component drawn): 0.0558 | fitness (S. pneumoniae D39V [2]; first compound 0.5 µg/mL, partner 3.2 µg/mL, main component drawn): 0.043 | Bliss interaction score (B. subtilis 168 [3]; main component drawn): -0.0496 | Bliss interaction score (S. aureus DSM 20231; main component drawn): -0.123 | Bliss interaction score (S. aureus Newman; main component drawn): -0.059 | Bliss interaction score (S. pneumoniae D39V [4]; main component drawn): -0.0601
